The text below walks through data of ChEMBL document CHEMBL4308882, “Synthesis, biological evaluation and molecular dynamic simulations of novel Benzofuran-tetrazole derivatives as potential agents against Alzheimer's disease” (2019).

Usually inhibition stands for the change of the read-out against control, counted positive when it falls.

SMILES strings stand for the structures. The source made the active and inactive calls. No cut-off for these calls is given here.

For experiment [1], the system named is Caenorhabditis elegans. Put plainly: Antialzheimer activity in Caenorhabditis elegans CL4176 harboring temperature-inducible human amyloid beta transgene assessed as reduction in amyloid beta aggregation at 1 mM pretreated for 48 hrs at 15 degC followed by heat stress stimulation to 25 degC for 35 hrs by thioflavin-s staining based microscopic analysis. The format is functional, organism-based.

Experiment [2] relates to Caenorhabditis elegans. Put plainly: Protection against amyloid beta aggregation-induced paralysis in Caenorhabditis elegans CL4176 harboring temperature-inducible human amyloid beta transgene assessed as inhibition of paralysis at 1 mM pretreated for 48 hrs at 15 degC followed by heat stress stimulation to 25 degC for 35 hrs relative to control. The format is functional.

Experiment [3] concerns Caenorhabditis elegans. As to the kind of experiment: Antialzheimer activity in Caenorhabditis elegans […] harboring temperature-inducible human amyloid beta transgene assessed as reduction in AChE level at 1 mM pretreated for 48 hrs at 15 degC followed by heat stress stimulation to 25 degC for 35 hrs by amplex red assay. The format is functional, organism-based.

For the compound `Cc1ccc(NC(c2cn(-c3ccc(F)cc3)nc2-c2cc3ccccc3o2)c2nnnn2C(C)(C)C)cc1` (stereo unspecified), the inhibition entry in experiment [1] was “Active”. Moreover, in experiment [2], the inhibition at 1000 µM was found to be 42.1%.

For `CC(C)(C)n1nnnc1C(Nc1ccc(F)cc1)c1cn(-c2ccccc2)nc1-c1cc2ccccc2o1` (stereo unspecified), in experiment [3], the outcome was Active. In experiment [1], the inhibition result is “Active”. Moreover, in experiment [2], the inhibition at 1000 µM stood at 56.5%.

As for `Cc1ccc(NC(c2cn(-c3ccc(Cl)cc3)nc2-c2oc3ccccc3c2C)c2nnnn2C(C)(C)C)cc1` (stereo unspecified), the result in experiment [3] was Active. For the same compound, the inhibition result in experiment [1] was “Active”. For the same compound, the inhibition at 1000 µM in experiment [2] turned out to be 46.7%.

For `CC(C)(C)n1nnnc1C(Nc1ccc(C(F)(F)F)c(Br)c1)c1cn(-c2ccccc2)nc1-c1cc2ccccc2o1` (stereo unspecified), the inhibition entry in experiment [1] was “Active”. Moreover, the inhibition at 1000 µM in experiment [2] turned out to be 63.8%.

With `Cc1ccc(NC(c2cn(-c3ccccc3)nc2-c2cc3ccccc3o2)c2nnnn2C(C)(C)C)cc1F` (stereo unspecified), the outcome in experiment [3] was Active. For the same compound, in experiment [1], the inhibition entry was “Active”. Further, the inhibition at 1000 µM in experiment [2] is 45.4%.

With `COc1ccc(NC(c2cn(-c3ccccc3)nc2-c2oc3ccccc3c2C)c2nnnn2C(C)(C)C)cc1` (stereo unspecified), the result in experiment [3] was Active. For the same compound, the inhibition result in experiment [1] is “Active”. The inhibition at 1000 µM in experiment [2] amounted to 67.1%.
